According to patent publication US20210403435A1, “HERBICIDAL COMPOUNDS” (SYNGENTA CROP PROTECTION AG, priority 2018, published 2021):

Assays:
Experiment in all cases: Post-emergence efficacy, glasshouse, evaluated after 13 days
Format in all cases: in vivo
[1] = tested on: Amaranthus palmeri (AMAPA); settings: Amaranthus palmeri, 312 h; post-emergence application, 500 g/Ha, evaluated after 13 days; read-out: Control of weed species AMAPA (100=total damage to plant; 0=no damage to plant)
Procedure, shortened: (§1)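 Damage rated on a 0–100 scale (100 = plant killed) 13 days after spraying. Spray contained compound in IF50 emulsifier, diluted with 0.25% or 1% Empicol ESC70 plus 1% ammonium sulphate, applied to 14-day-old glasshouse plants (24/16° C., 14 h light, 65% humidity).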

[2] = tested on: Chenopodium album (CHEAL); settings: Chenopodium album, 312 h; post-emergence application, 500 g/Ha, evaluated after 13 days; read-out: Control of weed species CHEAL (100=total damage to plant; 0=no damage to plant)
Procedure, shortened: as §1

[3] = tested on: Digitaria sanguinalis (DIGSA); settings: Digitaria sanguinalis, 312 h; post-emergence application, 500 g/Ha, evaluated after 13 days; read-out: Control of weed species DIGSA (100=total damage to plant; 0=no damage to plant)
Procedure, shortened: as §1

[4] = tested on: Echinochloa crus-galli (ECHCG); settings: Echinochloa crus-galli, 312 h; post-emergence application, 500 g/Ha, evaluated after 13 days; read-out: Control of weed species ECHCG (100=total damage to plant; 0=no damage to plant)
Procedure, shortened: as §1

Eleusine indica (ELEIN) = settings: Eleusine indica, 312 h; post-emergence application, 500 g/Ha, evaluated after 13 days; read-out: Control of weed species ELEIN (100=total damage to plant; 0=no damage to plant)
Procedure, shortened: as §1

[5] = tested on: Euphorbia heterophylla (EPHHL); settings: Euphorbia heterophylla, 312 h; post-emergence application, 500 g/Ha, evaluated after 13 days; read-out: Control of weed species EPHHL (100=total damage to plant; 0=no damage to plant)
Procedure, shortened: as §1

[6] = tested on: Ipomoea hederacea (IPOHE); settings: Ipomoea hederacea, 312 h; post-emergence application, 500 g/Ha, evaluated after 13 days; read-out: Control of weed species IPOHE (100=total damage to plant; 0=no damage to plant)
Procedure, shortened: as §1

Lolium perenne (LOLPE) = settings: Lolium perenne, 312 h; post-emergence application, 500 g/Ha, evaluated after 13 days; read-out: Control of weed species LOLPE (100=total damage to plant; 0=no damage to plant)
Procedure, shortened: as §1

Setaria faberi (SETFA) = settings: Setaria faberi, 312 h; post-emergence application, 500 g/Ha, evaluated after 13 days; read-out: Control of weed species SETFA (100=total damage to plant; 0=no damage to plant)
Procedure, shortened: as §1

## Cn1cnc(CNC(=O)c2cc[n+](CCC(=O)O)nc2)n1 [Compound A147]
[1]
  pest or weed control at 500 g/ha: 100%
[2]
  pest or weed control at 500 g/ha: 90%
[3]
  pest or weed control at 500 g/ha: 100%
[4]
  pest or weed control at 500 g/ha: 90%
Eleusine indica (ELEIN)
  pest or weed control at 500 g/ha: 90%
[5]
  pest or weed control at 500 g/ha: 80%
[6]
  pest or weed control at 500 g/ha: 40%
Lolium perenne (LOLPE)
  pest or weed control at 500 g/ha: 90%
Setaria faberi (SETFA)
  pest or weed control at 500 g/ha: 80%

## CC1(C)CC(CCNC(=O)c2cc[n+](CCC(=O)O)nc2)=NO1 [Compound A148, 3-[4-[2-(5,5-dimethyl-4H-isoxazol-3-yl)ethylcarbamoyl]pyridazin-1-ium-1-yl]propanoic acid 2,2,2-trifluoroacetate]
[1]
  pest or weed control at 500 g/ha: 70%
[2]
  pest or weed control at 500 g/ha: 90%
[3]
  pest or weed control at 500 g/ha: 80%
[4]
  pest or weed control at 500 g/ha: 30%
Eleusine indica (ELEIN)
  pest or weed control at 500 g/ha: 30%
[5]
  pest or weed control at 500 g/ha: 40%
[6]
  pest or weed control at 500 g/ha: 30%
Lolium perenne (LOLPE)
  pest or weed control at 500 g/ha: 30%
Setaria faberi (SETFA)
  pest or weed control at 500 g/ha: 50%
